Consider 4 compounds from patent publication US12473303B2, “4-[[(7-aminopyrazolo[1,5-a]pyrimidin-5-yl)amino methyl]piperidin-3-ol compounds and their therapeutic use” (CARRICK THERAPEUTICS LIMITED, priority 2019, dated 2025).

“Also recorded” adds a separate entry of the source. Read-outs that look alike come from different tables or passages of the source.

The subject of assay [1] is Cyclin K. Also on record: key to Cyclin K Degrader Activity: −: No Cyclin K degradation.; +: Weak Cyclin K degradation.; ++: Moderate Cyclin K degradation.; +++: Strong Cyclin K degradation. As to conditions: cited from earlier work; for Cyclin K degradation (in words): literature.
The test system of a further assay is A673 cells. Kind of assay: Cellular potency in A673 cells. Conditions: for IC50: Homo sapiens, A673 cells. Type of assay: cell-based.
Assay [2] concerns Cyclin K. Kind of assay: Western blotting analysis of Cyclin K depletion in cell culture. The class given is cell-based. As to conditions: Table 2; A673 cells, 1 μM compound, 2 hours. The procedure:
Western Blotting Analysis of Cyclin K Depletion in Cell Culture A673 cells were incubated for 2 hours with of 1 μM compound in presence or in absence of 10 μM proteasome inhibitor MG132 (Sigma Aldrich) or NAE (NEDD8 activating enzyme) inhibitor […] (Cell Signalling Technologies). Cells were washed 2× with cold Phosphate Buffered Saline (PBS, Sigma Aldrich), followed by the addition of lysis buffer for 15 minutes on ice before harvesting and centrifugation.
Protein content in the cell lysate was assessed by BCA assay (Thermo Fisher). Samples were then prepared with 4× Laemmlli Buffer (Bio-Rad) and heated to 95° C. for 5 minutes. Each sample was loaded onto a Mini-PROTEAN TGX Stain Free Gel (Bio-Rad) at 50 μg protein/well. SDS-PAGE was performed and then protein was transferred onto a PVDF membrane using a Trans-Blot® Turbo™ Midi PVDF Transfer Pack (Bio-Rad. Membranes were blocked in TBS-T (Invitrogen), 5% (w/v) milk powder (Marvel) overnight at 4° C.
Membranes were incubated with anti-CCNK antibody (rabbit) primary antibody (Abcam) and anti-GAPDH antibody (rabbit) in TBS-T for 2 hours. Membranes were then washed three times with TBS-T, before incubation secondary goat anti-rabbit HRP antibody (Cell Signalling Technologies) followed by 3× washing in TBS-T. Blots were imaged using a Chemidoc imager (Bio-Rad). Cyclin K depletion was measured as the observable drop in band intensity in compound treated samples relative to proteasome-inhibitor treated samples, measured by densitometry (Image Lab).

The target in another assay is Human CDK7/CycH/MAT1 (Homo sapiens (Human), UniProt P50613). Kind of assay: Radiometric protein kinase assay (33PanQinase Activity Assay), CDK7. The class given is biochemical. Conditions: Table 1; ATP 3 μM. In a few lines:
(§1)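 Radiometric 33P assay: ATP, test compound (in 10% DMSO) and premixed substrate/enzyme incubated 60 min at 30 °C, stopped with 2% H3PO4. 33Pi incorporation counted by scintillation; least-squares curve fit.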

The target in the next assay is Human CDK12 wt/CycK (Homo sapiens (Human), UniProt Q9NYV4). Kind of assay: Radiometric protein kinase assay (33PanQinase Activity Assay), CDK12. Type of assay: biochemical. As to conditions: for CDK7/CDK12: ratio greater than 1 indicated selectivity for CDK12. Put shortly: as §1
The test system of a further assay is HeLa and A549 cells. As to conditions: Table 2, cited from earlier work.
Where [3] appears, read: Table 3, ratio >0.9 is an indicator of Cyclin K degradation.
Setting [4] is: Table 1, ATP 0.3 μM, read-out: CDK12 IC50.
Setting [5] is: Table 2, CDK12 kinase activity, read-out: Biochemical Potency IC50.
Where [6] appears, read: Table 3, CDK12 kinase activity, read-out: Biochemical Potency IC50.

Human CDK12 wt/CycK, sequence (Q9NYV4 whole entry): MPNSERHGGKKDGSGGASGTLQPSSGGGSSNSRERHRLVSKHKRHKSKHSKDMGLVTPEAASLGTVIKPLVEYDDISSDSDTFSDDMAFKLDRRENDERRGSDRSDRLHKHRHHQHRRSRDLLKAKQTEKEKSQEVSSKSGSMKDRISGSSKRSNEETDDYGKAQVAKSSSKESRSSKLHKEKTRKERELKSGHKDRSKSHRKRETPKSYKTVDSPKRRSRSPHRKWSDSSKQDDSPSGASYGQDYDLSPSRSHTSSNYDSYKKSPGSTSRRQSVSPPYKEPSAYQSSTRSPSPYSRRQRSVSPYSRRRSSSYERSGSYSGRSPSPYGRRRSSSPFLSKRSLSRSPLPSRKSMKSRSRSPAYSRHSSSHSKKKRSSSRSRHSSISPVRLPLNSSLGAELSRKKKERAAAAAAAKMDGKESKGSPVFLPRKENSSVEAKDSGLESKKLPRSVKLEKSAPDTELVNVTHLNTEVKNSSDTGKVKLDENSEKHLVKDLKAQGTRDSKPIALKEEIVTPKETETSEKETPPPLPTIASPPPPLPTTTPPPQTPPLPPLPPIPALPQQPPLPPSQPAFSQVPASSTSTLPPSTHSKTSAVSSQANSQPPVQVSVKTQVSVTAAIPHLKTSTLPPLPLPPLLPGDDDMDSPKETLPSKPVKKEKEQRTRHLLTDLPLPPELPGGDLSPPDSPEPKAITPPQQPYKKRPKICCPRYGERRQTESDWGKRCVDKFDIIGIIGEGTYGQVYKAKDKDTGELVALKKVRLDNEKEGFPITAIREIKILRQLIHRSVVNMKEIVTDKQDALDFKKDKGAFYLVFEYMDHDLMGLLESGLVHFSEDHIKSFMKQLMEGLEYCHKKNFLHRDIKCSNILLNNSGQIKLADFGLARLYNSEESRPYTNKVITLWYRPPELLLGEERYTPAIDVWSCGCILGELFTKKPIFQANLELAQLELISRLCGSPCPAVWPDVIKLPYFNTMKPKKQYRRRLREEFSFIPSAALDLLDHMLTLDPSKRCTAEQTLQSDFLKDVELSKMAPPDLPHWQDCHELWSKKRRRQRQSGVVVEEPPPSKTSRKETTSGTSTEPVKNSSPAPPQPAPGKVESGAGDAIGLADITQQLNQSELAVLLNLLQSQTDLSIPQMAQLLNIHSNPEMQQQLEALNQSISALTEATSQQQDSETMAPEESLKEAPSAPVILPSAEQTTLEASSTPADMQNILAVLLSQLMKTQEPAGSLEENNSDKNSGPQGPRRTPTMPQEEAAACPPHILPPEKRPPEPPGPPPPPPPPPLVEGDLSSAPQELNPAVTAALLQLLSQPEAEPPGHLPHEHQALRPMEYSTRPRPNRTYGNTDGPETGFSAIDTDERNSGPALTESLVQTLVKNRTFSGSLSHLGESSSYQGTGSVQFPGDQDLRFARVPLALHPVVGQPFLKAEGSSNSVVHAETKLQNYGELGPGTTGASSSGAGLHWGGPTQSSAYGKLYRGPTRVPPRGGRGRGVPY
Human CDK12 wt/CycK, sequence (O75909 whole entry partner): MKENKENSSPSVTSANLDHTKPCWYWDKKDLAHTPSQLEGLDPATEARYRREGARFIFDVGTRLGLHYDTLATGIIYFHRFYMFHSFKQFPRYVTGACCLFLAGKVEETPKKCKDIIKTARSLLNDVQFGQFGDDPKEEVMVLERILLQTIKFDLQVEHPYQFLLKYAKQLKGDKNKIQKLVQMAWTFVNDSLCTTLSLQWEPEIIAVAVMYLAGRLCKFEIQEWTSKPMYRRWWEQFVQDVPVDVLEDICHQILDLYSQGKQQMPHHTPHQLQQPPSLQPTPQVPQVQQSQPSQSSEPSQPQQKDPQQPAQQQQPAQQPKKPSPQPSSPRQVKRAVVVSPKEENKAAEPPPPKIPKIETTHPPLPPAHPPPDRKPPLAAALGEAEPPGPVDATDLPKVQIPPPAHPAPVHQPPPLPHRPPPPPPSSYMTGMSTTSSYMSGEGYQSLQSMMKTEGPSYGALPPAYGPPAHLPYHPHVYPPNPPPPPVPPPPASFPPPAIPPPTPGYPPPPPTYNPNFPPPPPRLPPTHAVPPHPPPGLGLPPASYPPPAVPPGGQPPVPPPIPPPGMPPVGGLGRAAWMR
Human CDK7/CycH/MAT1, sequence (P50613 whole entry): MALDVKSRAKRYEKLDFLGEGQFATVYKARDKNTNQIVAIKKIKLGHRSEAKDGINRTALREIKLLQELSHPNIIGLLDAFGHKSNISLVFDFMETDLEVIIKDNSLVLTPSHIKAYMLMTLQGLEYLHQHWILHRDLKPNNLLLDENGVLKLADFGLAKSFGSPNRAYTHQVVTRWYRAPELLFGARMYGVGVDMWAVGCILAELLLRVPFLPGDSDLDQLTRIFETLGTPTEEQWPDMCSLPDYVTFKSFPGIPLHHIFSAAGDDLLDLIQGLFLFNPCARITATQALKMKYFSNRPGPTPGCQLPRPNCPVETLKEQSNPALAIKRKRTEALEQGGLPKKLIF
Human CDK7/CycH/MAT1, sequence (P51946 whole entry partner): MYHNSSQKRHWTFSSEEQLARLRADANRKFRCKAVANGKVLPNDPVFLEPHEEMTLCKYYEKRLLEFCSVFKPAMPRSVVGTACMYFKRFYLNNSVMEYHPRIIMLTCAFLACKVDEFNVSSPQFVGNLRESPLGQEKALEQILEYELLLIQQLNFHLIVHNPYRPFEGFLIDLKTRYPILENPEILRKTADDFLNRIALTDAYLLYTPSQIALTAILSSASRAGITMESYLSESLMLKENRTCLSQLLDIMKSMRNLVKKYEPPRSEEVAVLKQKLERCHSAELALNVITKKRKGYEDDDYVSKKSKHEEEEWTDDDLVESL
Human CDK7/CycH/MAT1, sequence (P51948 whole entry partner): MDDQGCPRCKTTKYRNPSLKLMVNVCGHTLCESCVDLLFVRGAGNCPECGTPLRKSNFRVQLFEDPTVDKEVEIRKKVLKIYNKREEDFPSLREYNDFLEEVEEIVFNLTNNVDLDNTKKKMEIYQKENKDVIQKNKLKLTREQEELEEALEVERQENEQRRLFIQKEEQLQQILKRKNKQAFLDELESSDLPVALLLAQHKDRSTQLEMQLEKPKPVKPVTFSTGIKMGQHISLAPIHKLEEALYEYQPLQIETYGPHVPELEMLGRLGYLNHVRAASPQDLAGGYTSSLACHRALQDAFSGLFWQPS

`CC[C@H](CO)Nc1nc(NCc2ccc(-c3ccccn3)cc2)c2ncn(C(C)C)c2n1` [CR8]: the “Cyclin K degradation (in words)” value in the assay on Cyclin K [1] was “cause Cyclin K degradation”.
Consider `CC(C)c1cnn2c(NCc3nc4cc(C5CC5)ccn4n3)cc(NC[C@H]3CCNC[C@@H]3O)nc12` [H-APPAMP-044, (3R,4R)-4-(((7-(((7-cyclopropyl-[1,2,4]triazolo[1,5-a]pyridin-2-yl)methyl)amino)-3-isopropylpyrazolo[1,5-a]pyrimidin-5-yl)amino)methyl)piperidin-3-ol], for which the IC50 with A673 cells (A673, Table 2) was found to be 44 nM; in the assay on A673 cells (A673, Table 3), 44 nM; against Human CDK7/CycH/MAT1, 0.269 µM; on Human CDK12 wt/CycK (setting [4]), 0.04 µM; at Human CDK12 wt/CycK (setting [5]) it was 0.04 µM; at Human CDK12 wt/CycK (setting [6]) it was 0.04 µM. Also, the “Ratio of Biochemical Potency: Cellular Potency” value (shortened to “Ratio of Biochemical Potency”) in the assay on A673 cells (Table 2) and with A673 cells (setting [3]) was 0.91 throughout. For the same compound, in the assay with Cyclin K [2], the “Cyclin K Degrader Activity” value is “+”. For the same compound, at Human CDK12 wt/CycK (Table 1), the CDK7/CDK12 is on record as 6.7.
`O[C@H]1CNCC[C@@H]1CNc1cc(NCc2cn3ccc(-c4ccccc4)cc3n2)n2ncc(C3CC3)c2n1` [H-APPAMP-045, (3R,4R)-4-(((3-cyclopropyl-7-(((7-phenylimidazo[1,2-a]pyridin-2-yl)methyl)amino)pyrazolo[1,5-a]pyrimidin-5-yl)amino)methyl)piperidin-3-ol]: the IC50 in the assay with A673 cells (A673, Table 2) was determined as 110 nM; in the assay on A673 cells (A673, Table 3) it was 110 nM; at Human CDK7/CycH/MAT1, 0.496 µM; at Human CDK12 wt/CycK (setting [4]), 0.018 µM; at Human CDK12 wt/CycK (setting [5]) it was 0.018 µM; at Human CDK12 wt/CycK (setting [6]), 0.018 µM. Also, the “Ratio of Biochemical Potency” value in the assay with A673 cells (Table 2) and in the assay on A673 cells (setting [3]) was 0.16 each time. For the same compound, the “Cyclin K Degrader Activity” value with Cyclin K [2] was “−”. The CDK7/CDK12 at Human CDK12 wt/CycK (Table 1) came out at 27.6.
For `CN(C)C/C=C/C(=O)Nc1ccc(C(=O)N2CCC[C@@H](Nc3ncc(Cl)c(-c4c[nH]c5ccccc45)n3)C2)cc1` [THZ-531], in the assay on HeLa and A549 cells (derived from published data in HeLa and A549 cells, read-out: Cellular Potency IC50), the IC50 is 0.21 µM. Also, the “Ratio of Biochemical Potency” value in the assay on HeLa and A549 cells (derived from published data) was 0.74. Also, the “Cyclin K Degrader Activity” value with Cyclin K [1] (Table 2, derived from published data in HeLa and A549 cells) was “−”. For the same compound, the “Cyclin K degradation (in words)” value with Cyclin K [1] is “not cyclin K degraders; also recorded: did not cause cyclin K degradation”.
